Reference: ChEMBL document CHEMBL5550103, “Design, synthesis, and antiviral activity of 1-aryl-4-arylmethylpiperazine derivatives as Zika virus inhibitors with broad antiviral spectrum” (Bioorg Med Chem, 2024)
pEC50: −log10 of the molar value. Active and inactive are the calls of the source. No cut-off for these calls is given here.

Experiments:
Zika virus [1] = assay: Antiviral activity against ZIKV infected in HUVECs at 5 uM pre-infected with virus followed by compound addition and measured after 48 hrs by qRT-PCR analysis relative to control; assay type: functional; details: HUVEC
[2] = Cytotoxicity against HUVECs assessed as reduction in cell viability at 5 uM incubated for 48 hrs by CCK-8 method relative to control; assay type: toxicity, cell-based; details: human, HUVEC cells, values are per cent of control
Zika virus [3] = assay: Antiviral activity against ZIKV infected in HUVECs pre-infected with virus followed by compound addition and measured after 48 hrs by qRT-PCR analysis; assay type: functional, organism-based; details: HUVEC
[4] = Cytotoxicity against HUVECs assessed as reduction in cell viability incubated for 48 hrs by CCK-8 method; assay type: toxicity, cell-based; details: human, HUVEC cells
[5] = Selectivity index, ratio of CC50 for HUVECs to EC50 for ZIKA virus infected in HUVECs; assay type: toxicity; details: human, HUVEC cells; read-out: Ratio CC50/EC50
[6] = Metabolic stability in mouse liver microsomes assessed as half life preincubated with NADPH for 10 mins followed by compound addition and measured upto 30 mins by LC-MS/MS analysis; assay type: ADME, Microsome; details: time < 40 min
[7] = Metabolic stability in human liver microsomes assessed as half life preincubated with NADPH for 10 mins followed by compound addition and measured upto 30 mins by LC-MS/MS analysis; assay type: ADME, Microsome; details: time < 40 min
Zika virus [8] = assay: Antiviral activity against ZIKV infected in HUVECs assessed as reduction in NS5 protein level measured after 48 hrs by Western blot analysis; assay type: functional, organism-based; details: HUVEC, dose 0.625-5 µM
Zika virus [9] = assay: Antiviral activity against ZIKV infected in HUVECs assessed as inhibition of viral replication at 10 uM pretreated with cells for 1 hr followed by viral infection for 1 hr prior to compound washout and measured after 48 hrs post infection by qRT-PCR analysis; assay type: functional, organism-based; details: HUVEC, time 2.0 hrs
Zika virus [10] = assay: Antiviral activity against ZIKV infected in HUVECs assessed as inhibition of viral replication at 10 uM incubated for 1 hr with subsequent addition of virus followed by compound washout and measured after 48 hrs post infection by qRT-PCR analysis; assay type: functional, organism-based; details: HUVEC
Zika virus [11] = assay: Antiviral activity against ZIKV infected in HUVECs assessed as inhibition of viral replication at 10 uM pre-infected with virus for 1 hr prior to compound addition for 1 hr followed by compound washout and measured after 48 hrs post infection by qRT-PCR analysis; assay type: functional, organism-based; details: HUVEC
Zika virus [12] = assay: Antiviral activity against ZIKV infected in HUVECs assessed as reduction in viral attachment to AXL; assay type: functional, organism-based; details: HUVEC
Human coronavirus OC43 = assay: Antiviral activity against Human coronavirus OC43 infected in BHK-21 cells assessed as inhibition of viral replication pre-infected with virus for 24 hrs followed by compound addition and measured after 48 hrs by luciferase assay; assay type: functional, organism-based; details: Betacoronavirus 1, BHK-21
Influenza A virus = assay: Antiviral activity against influenza A virus infected in HEK293T cells assessed as inhibition of viral replication pre-infected with virus followed by compound addition and measured after 24 hrs by luciferase assay; assay type: functional, organism-based; details: HEK-293T
HEK-293T = assay: Cytotoxicity against HEK293T cells assessed as reduction in cell viability at >10 uM measured after 24 hrs by CCK-8 method; assay type: toxicity, cell-based; details: human
Zika virus [13] = assay: Antiviral activity against ZIKV infected in HUVECs assessed as reduction in NS5 protein level at 1 uM measured after 48 hrs by Western blot analysis; assay type: functional, organism-based; details: HUVEC

With Cc1ccc(N2CCN(Cc3cc(N4CCCN5CCCC5C4)ccn3)CC2)cc1 (stereo not drawn) the inhibition at 5 µM (Zika virus [1]) was < 10% and the viability, % of control at 48 h, 5 µM [2] was 100%.

Molecule CN1CCC2(CC1)CCN(c1ccc(C(F)(F)F)c(CN3CCN(c4ccc(C(F)(F)F)cc4)CC3)c1)C2 has a pEC50 (Zika virus [3]) of 6.23, a CC50 at 48 h [4] of 2270 nM and a selectivity ratio [5] of 4.

For CN(C)CCN(C)c1ccc(C#N)c(CN2CCN(c3ccc(Cl)cc3)CC2)c1, the pEC50 (Zika virus [3]) was 5.66, the CC50 at 48 h [4] was 19800 nM and the selectivity ratio [5] was 9. The half-life [6] was 0.548 h and the half-life [7] was > 1.53 h.

Molecule Clc1ccc(N2CCN(Cc3cc(N4CCC5(CCCN5Cc5ccccc5)C4)ccn3)CC2)cc1 (stereo not drawn) has an inhibition at 5 µM (Zika virus [1]) of 49% and a viability, % of control at 48 h, 5 µM [2] of 91%.

For Cc1ccc(N2CCN(Cc3cc(N4CCC5(CCN(C)CC5)C4)ccn3)CC2)cc1, the inhibition at 5 µM (Zika virus [1]) was < 10% and the viability, % of control at 48 h, 5 µM [2] was 100%.

For CN1CCCN(c2ccc(C(F)(F)F)c(CN3CCN(c4ccc(C(F)(F)F)cc4)CC3)c2)CC1, the pEC50 (Zika virus [3]) was 6.03, the CC50 at 48 h [4] was 9890 nM and the selectivity ratio [5] was 11.

With Cc1ccc(N2CCN(Cc3cc(N(C)CCN(C)C)ccc3C(F)(F)F)CC2)cc1 the inhibition at 5 µM (Zika virus [1]) was < 10% and the viability, % of control at 48 h, 5 µM [2] was 103%.

For CN(C)CCN(C)c1ccc(C(F)(F)F)c(CN2CCN(c3ccc(Cl)cc3)CC2)c1, the pEC50 (Zika virus [3]) was 5.95, the CC50 at 48 h [4] was 22400 nM and the selectivity ratio [5] was 20.

For CN(C)CCN(CCN(C)C)c1ccnc(CN2CCN(c3ccc(C(F)(F)F)cc3)CC2)c1, the inhibition at 5 µM (Zika virus [1]) was < 10% and the viability, % of control at 48 h, 5 µM [2] was 104%.

For Clc1ccc(N2CCN(Cc3cc(N4CCC5(CCN(Cc6ccccc6)CC5)C4)ccn3)CC2)cc1, the pEC50 (Zika virus [3]) was 6.82, the CC50 at 48 h [4] was 20700 nM and the selectivity ratio [5] was 138.

With CN1CCCN(c2ccnc(CN3CCN(c4ccc(C(F)(F)F)cc4)CC3)c2)CC1 the pEC50 (Zika virus [3]) was 5.88, the CC50 at 48 h [4] was > 50000 nM and the selectivity ratio [5] was 66.

In the case of Cc1ccc(N2CCN(Cc3cc(N(C)CCN(C)C)ccn3)CC2)cc1, the inhibition at 5 µM (Zika virus [1]) was < 10% and the viability, % of control at 48 h, 5 µM [2] was 101%.

For CN1CCC2(CC1)CCN(c1ccnc(CN3CCN(c4ccc(C(F)(F)F)cc4)CC3)c1)C2, the pEC50 (Zika virus [3]) was 5.66, the CC50 at 48 h [4] was 30400 nM and the selectivity ratio [5] was 14.

In the case of Clc1ccc(N2CCN(Cc3cc(N4CC5CN(Cc6ccccc6)CC5C4)ccn3)CC2)cc1 (stereo not drawn), the pEC50 (Zika virus [3]) was 5.70, the CC50 at 48 h [4] was > 50000 nM and the selectivity ratio [5] was > 25.

With CN(C)CCN(C)c1ccc(C(F)(F)F)c(CN2CCN(c3ccc(C(F)(F)F)cc3)CC2)c1 the pEC50 (Zika virus [3]) was 5.53, the CC50 at 48 h [4] was 14600 nM and the selectivity ratio [5] was 5.

For CN(C)CCN(C)CCN(C)c1ccnc(CN2CCN(c3ccc(Cl)cc3)CC2)c1, the pEC50 (Zika virus [3]) was 6.06, the CC50 at 48 h [4] was > 50000 nM and the selectivity ratio [5] was > 58.

For CN(C)CCN(C)c1ccc(C(F)(F)F)c(CN2CCN(c3ccncc3)CC2)c1, the inhibition at 5 µM (Zika virus [1]) was < 10% and the viability, % of control at 48 h, 5 µM [2] was 107%.

Molecule CN1CCC2(CC1)CCN(c1ccnc(CN3CCN(c4ccc(Cl)cc4)CC3)c1)C2 has a pEC50 (Zika virus [3]) of 6.23, a CC50 at 48 h [4] of 31500 nM and a selectivity ratio [5] of 54.

For NC(=O)c1ncn([C@@H]2O[C@H](CO)[C@@H](O)[C@H]2O)n1 [RIBAVIRIN], the pEC50 (Zika virus [3]) was 5.59, the CC50 at 48 h [4] was > 150000 nM and the selectivity ratio [5] was > 59.

In the case of CN1CCN(c2ccnc(CN3CCN(c4ccc(Cl)cc4)CC3)c2)CC1, the pEC50 (Zika virus [3]) was 5.84, the CC50 at 48 h [4] was > 50000 nM and the selectivity ratio [5] was > 34.

With CN1CC2CN(c3ccnc(CN4CCN(c5ccc(Cl)cc5)CC4)c3)CC2C1 (stereo not drawn) the pEC50 (Zika virus [3]) was 5.91, the CC50 at 48 h [4] was > 50000 nM and the selectivity ratio [5] was > 41.

In the case of CN(C)CCN(C)CCN(C)c1ccc(C(F)(F)F)c(CN2CCN(c3ccncc3)CC2)c1, the pEC50 (Zika virus [3]) was 6.41, the CC50 at 48 h [4] was > 50000 nM and the selectivity ratio [5] was > 128. The Activity (Zika virus [8]) was “Dose-Dependent Effect”, the Activity (Zika virus [9]) was “Active” and the Activity (Zika virus [10]) was “Active”. For the same molecule, the Activity (Zika virus [11]) was “inactive”, the Activity (Zika virus [12]) was “inactive” and the pEC50 (Human coronavirus OC43) was 5.64. For the same molecule, the pEC50 (Influenza A virus) was 5.57, the Activity (HEK-293T) was “Toxic” and the half-life [6] was 2.31 h. The half-life [7] was > 1.53 h.

With Cc1ccc(N2CCN(Cc3cc(N4CCCN(C)CC4)ccc3C(F)(F)F)CC2)cc1 the inhibition at 5 µM (Zika virus [1]) was < 10% and the viability, % of control at 48 h, 5 µM [2] was 105%.

With CN(C)CCN(C)c1ccnc(CN2CCN(c3ccc(Cl)cc3)CC2)c1 the pEC50 (Zika virus [3]) was 6.02, the CC50 at 48 h [4] was > 50000 nM and the selectivity ratio [5] was > 52.

With CN1CC2(CCN(c3ccnc(CN4CCN(c5ccc(Cl)cc5)CC4)c3)C2)C1 the pEC50 (Zika virus [3]) was 6.09, the CC50 at 48 h [4] was > 50000 nM and the selectivity ratio [5] was > 61. The Activity (Zika virus [8]) was “Dose-Dependent Effect”, the Activity (Zika virus [9]) was “Active” and the Activity (Zika virus [10]) was “Active”. The Activity (Zika virus [11]) was “inactive”, the Activity (Zika virus [12]) was “inactive” and the pEC50 (Human coronavirus OC43) was 5.66. For the same molecule, the pEC50 (Influenza A virus) was 5.59, the Activity (HEK-293T) was “Toxic” and the half-life [6] was 1.4 h. For the same molecule, the half-life [7] was > 1.53 h.

With C#C[C@@]1(O)[C@H](O)[C@@H](CO)O[C@H]1n1ccc2c(N)ncnc21 the Activity (Zika virus [13]) was “Active”, the Activity (Zika virus [9]) was “inactive” and the Activity (Zika virus [11]) was “Active”.

In the case of Cc1ccc(N2CCN(Cc3cc(N4CCCN(C)CC4)ccn3)CC2)cc1, the inhibition at 5 µM (Zika virus [1]) was < 10% and the viability, % of control at 48 h, 5 µM [2] was 105%.

In the case of Cc1ccc(N2CCN(Cc3cc(N(C)CCN(C)CCN(C)C)ccc3C(F)(F)F)CC2)cc1, the inhibition at 5 µM (Zika virus [1]) was < 10% and the viability, % of control at 48 h, 5 µM [2] was 98%.

For CN(C)CCN(C)c1ccnc(CN2CCN(c3ccc(C(F)(F)F)cc3)CC2)c1, the inhibition at 5 µM (Zika virus [1]) was 33% and the viability, % of control at 48 h, 5 µM [2] was 103%.
